Measured values from patent US7462600B2, “Macrolides” (Pfizer Inc, priority 2004, dated 2008).
Converted amounts (≈) assume the structure as drawn. Like-named read-outs stand apart in the source and are kept apart here.

Key:
Format in all cases: cell-based
[1] = tested on: Streptococcus pyogenes 1079; experiment: MIC, microtiter broth dilution (NCCLS M100-S14), S. pyogenes 1079 (ermB)
In short: (§1)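 MIC read-out follows NCCLS M100-S14 interpretation of microtiter tray broth dilution. Test agents are prepared as DMSO stocks at 40 mg/ml.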

[2] = tested on: Streptococcus pneumoniae 1016; experiment: MIC, microtiter broth dilution (NCCLS M100-S14), S. pneumoniae 1016 (susceptible)
In short: as §1

[3] = tested on: Streptococcus pneumoniae 1095; conditions: microtiter broth dilution
In short: as §1

[4] = tested on: Streptococcus pneumoniae 1175; conditions: microtiter broth dilution
In short: as §1

[5] = tested on: Haemophilus influenzae 1218; experiment: MIC, microtiter broth dilution (NCCLS M100-S14), H. influenzae 1218 (susceptible)
In short: as §1

Compound | MIC S. pyogenes 1079 ([1]; Streptococcus pyogenes 1079) | MIC S. pneumo. 1016 ([2]; Streptococcus pneumoniae 1016) | MIC S. pneumo. 1095 ([3]; Streptococcus pneumoniae 1095) | MIC S. pneumo. 1175 ([4]; Streptococcus pneumoniae 1175) | MIC H. influenzae 1218 ([5]; Haemophilus influenzae 1218) | MIC S. pyogenes 1079 ([1]; S. pyogenes 1079 (ermB)) | MIC S. pneumo. 1016 ([2]; S. pneumoniae 1016 (susceptible)) | MIC S. pneumo. 1095 ([3]; S. pneumoniae 1095 (ermB)) | MIC S. pneumo. 1175 ([4]; S. pneumoniae 1175 (mefA)) | MIC H. influenzae 1218 ([5]; H. influenzae 1218 (susceptible))
CCC1OC(=O)C(C)C(=O)C(C)C(OC2OC(C)CC(N(C)C)C2O)C(C)(OC)CC(C)C(=O)C(C)C2N(C3CN(Cc4cccc5ncccc45)C3)C(=O)OC12C (stereo not drawn) [Example 1.06, 3-descladinosyl-11,12-dideoxy-6-O-methyl-3-oxo-12,11-(oxycarbonyl-(1-((quinolin-5-yl)-methyl)-azetidin-3-yl)-imino)-erythromycin A] | 4 µg/mL (≈ 4.94 µM) | <0.06 µg/mL | <0.06 µg/mL | <0.06 µg/mL | 1 µg/mL (≈ 1.24 µM) |  |  |  |  | 
CCOc1cnc2ncccc2c1CN1CC(N2C(=O)OC3(C)C(CC)OC(=O)C(C)C(=O)C(C)C(OC4OC(C)CC(N(C)C)C4O)C(C)(OC)CC(C)C(=O)C(C)C23)C1 (stereo not drawn) [Example 1.108, 3-descladinosyl-11,12-dideoxy-6-O-methyl-3-oxo-12,11-(oxycarbonyl-(1-(3-ethoxy-1,8-naphthyridine-4-methyl)-azetidin-3-yl)-imino)-erythromycin A] | 0.5 µg/mL (≈ 0.585 µM) | <0.063 µg/mL | <0.063 µg/mL | 0.125 µg/mL (≈ 0.146 µM) | 1 µg/mL (≈ 1.17 µM) |  |  |  |  | 
CC[C@H]1OC(=O)[C@H](C)C(=O)[C@H](C)[C@@H](O[C@@H]2O[C@H](C)C[C@H](N(C)C)[C@H]2O)[C@](C)(OC)C[C@@H](C)C(=O)[C@H](C)[C@H]2N(C3CN(Cc4c(Br)cnc5nccnc45)C3)C(=O)O[C@]12C [Example 1.74, 3-descladinosyl-11,12-dideoxy-6-O-methyl-3-oxo-12,11-(oxycarbonyl-(1-(7-bromopyrido[3,2-b]pyrazine-8-methyl)-azetidin-3-yl)imino)-erythromycin A] | 0.5 µg/mL (≈ 0.562 µM) | <0.063 µg/mL | <0.063 µg/mL | <0.063 µg/mL | 1 µg/mL (≈ 1.12 µM) |  |  |  |  | 
CCC1OC(=O)C(C)C(=O)C(C)C(OC2OC(C)CC(N(C)C)C2O)C(C)(OC)CC(C)C(=O)C(C)C2N(CC3CN(C(=O)c4ccnc5nc[nH]c45)C3)C(=O)OC12C.O=CO (stereo not drawn) [4.45] | >64.00 µg/mL | <0.06 µg/mL | >64.00 µg/mL | 4 µg/mL | 16 µg/mL |  |  |  |  | 
CCC1OC(=O)C(C)C(=O)C(C)C(OC2OC(C)CC(N(C)C)C2O)C(C)(OC)CC(C)C(=O)C(C)C2N(C3CN(C(C)c4ccncc4)C3)C(=O)OC12C (stereo not drawn) [Example 1.21, 1R-(pyridin-4-yl)ethyl] | 32 µg/mL (≈ 41.4 µM) | <0.06 µg/mL | <0.06 µg/mL | 0.5 µg/mL (≈ 0.647 µM) | 2 µg/mL (≈ 2.59 µM) |  |  |  |  | 
CCC1OC(=O)C(C)C(=O)C(C)C(OC2OC(C)CC(N(C)C)C2O)C(C)(OC)CC(C)C(=O)C(C)C2N(C3CN(S(=O)(=O)c4ccc5oc(=O)[nH]c5c4)C3)C(=O)OC12C (stereo not drawn) [Example 3.43, 3-descladinosyl-11,12-dideoxy-6-O-methyl-3-oxo-12,11-(oxycarbonyl-(1-(2,3-dihydro-2-oxobenzo[d]oxazole-5-sulfonyl)-azetidin-3-yl)-imino)-erythromycin A] | 1 µg/mL (≈ 1.16 µM) | <0.06 µg/mL | <0.06 µg/mL | 0.5 µg/mL (≈ 0.578 µM) | 0.5 µg/mL (≈ 0.578 µM) |  |  |  |  | 
CCC1OC(=O)C(C)C(=O)C(C)C(OC2OC(C)CC(N(C)C)C2O)C(C)(OC)CC(C)C(=O)C(C)C2N(C3CN(Cc4c(Cl)cnc5ccccc45)C3)C(=O)OC12C (stereo not drawn) [Example 1.107, 3-descladinosyl-11,12-dideoxy-6-O-methyl-3-oxo-12,11-(oxycarbonyl-(1-(3-chloroquinoline-4-methyl)-azetidin-3-yl)-imino)erythromycin A] | 0.25 µg/mL (≈ 0.296 µM) | <0.063 µg/mL | <0.063 µg/mL | <0.063 µg/mL | 1 µg/mL (≈ 1.19 µM) |  |  |  |  | 
CCC1OC(=O)C(C)C(=O)C(C)C(OC2OC(C)CC(N(C)C)C2O)C(C)(OC)CC(C)C(=O)C(C)C2N(C3CN(S(=O)(=O)c4ccc(-c5nnc(C)o5)cc4)C3)C(=O)OC12C (stereo not drawn) [Example 3.61, 3-descladinosyl-11,12-dideoxy-4-O-methyl-3-oxo-12,11-(oxycarbonyl-(1-(4-(5-methyl-1,3,4-oxadiazol-2-yl)benzenesulfonyl)-azetidin-3-yl)-imino)-erythromycin A] | 2 µg/mL (≈ 2.25 µM) | <0.06 µg/mL | 2 µg/mL (≈ 2.25 µM) | 0.12 µg/mL (≈ 0.135 µM) | 2 µg/mL (≈ 2.25 µM) |  |  |  |  | 
CCC1OC(=O)C(C)C(=O)C(C)C(OC2OC(C)CC(N(C)C)C2O)C(C)(OC)CC(C)C(=O)C(C)C2N(CC3CCN(C(=O)c4cc5cccnc5[nH]4)C3)C(=O)OC12C (stereo not drawn) [13.15] |  |  |  |  |  | >64.00 µg/mL | <0.06 µg/mL | 2 µg/mL (≈ 2.38 µM) | 0.12 µg/mL (≈ 0.143 µM) | 4 µg/mL (≈ 4.76 µM)
CCC1OC(=O)C(C)C(=O)C(C)C(OC2OC(C)CC(N(C)C)C2O)C(C)(OC)CC(C)C(=O)C(C)C2N(C3CN(S(=O)(=O)c4ccc(C#N)nc4)C3)C(=O)OC12C (stereo not drawn) [Example 3.48, 6-cyanopyridine-3-sulfonyl] | >64.00 µg/mL | <0.06 µg/mL | 1 µg/mL (≈ 1.2 µM) | <0.06 µg/mL | 0.5 µg/mL (≈ 0.6 µM) |  |  |  |  | 
CCC1OC(=O)C(C)C(=O)C(C)C(OC2OC(C)CC(N(C)C)C2O)C(C)(OC)CC(C)C(=O)C(C)C2N(C3CN(Cc4n[nH]c5ccccc45)C3)C(=O)OC12C (stereo not drawn) [Example 1.29, 3-descladinosyl-11,12-dideoxy-6-O-methyl-3-oxo-12,11-(oxycarbonyl-(1-((indazol-3-yl)-methyl)-azetidin-3-yl)-imino)-erythromycin A] | 2 µg/mL (≈ 2.51 µM) | <0.06 µg/mL | <0.06 µg/mL | 1 µg/mL (≈ 1.25 µM) | 0.5 µg/mL (≈ 0.627 µM) |  |  |  |  | 
CCC1OC(=O)C(C)C(=O)C(C)C(OC2OC(C)CC(N(C)C)C2O)C(C)(OC)CC(C)C(=O)C(C)C2N(CC3CN(C(=O)c4cc5ccccc5cn4)C3)C(=O)OC12C.O=CO (stereo not drawn) [4.39] | >64.00 µg/mL | <0.06 µg/mL | 8 µg/mL | <0.06 µg/mL | 4 µg/mL |  |  |  |  | 
CCOc1ccc(S(=O)(=O)N2CC(N3C(=O)OC4(C)C(CC)OC(=O)C(C)C(=O)C(C)C(OC5OC(C)CC(N(C)C)C5O)C(C)(OC)CC(C)C(=O)C(C)C34)C2)cc1C#N (stereo not drawn) [Example 3.99, 3-descladinosyl-11,12-dideoxy-6-O-methyl-3-oxo-12,11-(oxycarbonyl-(1-(3-cyano-4-ethoxybenzene-1-sulfonyl)-azetidin-3-yl)-imino)-erythromycin A] | 0.25 µg/mL (≈ 0.285 µM) | <0.063 µg/mL | <0.063 µg/mL | <0.063 µg/mL | 1.41 µg/mL (≈ 1.61 µM) |  |  |  |  | 
CCC1OC(=O)C(C)C(=O)C(C)C(OC2OC(C)CC(N(C)C)C2O)C(C)(OC)CC(C)C(=O)C(C)C2N(CC3CN(Cc4c[nH]c5ccccc45)C3)C(=O)OC12C (stereo not drawn) [4.11] | 64 µg/mL (≈ 78.9 µM) | <0.06 µg/mL | 4 µg/mL (≈ 4.93 µM) | 2 µg/mL (≈ 2.47 µM) | 1 µg/mL (≈ 1.23 µM) |  |  |  |  | 
CCC1OC(=O)C(C)C(=O)C(C)C(OC2OC(C)CC(N(C)C)C2O)C(C)(OC)CC(C)C(=O)C(C)C2N(C3CN(S(=O)(=O)c4cccc(-c5cc(C)no5)c4)C3)C(=O)OC12C (stereo not drawn) [Example 3.40, 3-descladinosyl-11,12-dideoxy-6-O-methyl-3-oxo-12,11-(oxycarbonyl-1(-(3-(3-methylisoxazol-5-yl)benzenesulfonyl)-azetidin-3-yl)-imino)-erythromycin A] | 4 µg/mL (≈ 4.5 µM) | <0.06 µg/mL | <0.06 µg/mL | <0.06 µg/mL | 2 µg/mL (≈ 2.25 µM) |  |  |  |  | 
CCC1OC(=O)C(C)C(=O)C(C)C(OC2OC(C)CC(N(C)C)C2O)C(C)(OC)CC(C)C(=O)C(C)C2N(C3CN(Cc4ccncc4Br)C3)C(=O)OC12C (stereo not drawn) [Example 1.77, 3-descladinosyl-11,12-dideoxy-6-O-methyl-3-oxo-12,11-(oxycarbonyl-(1-(3-bromopyridine-4-methyl)-azetidin-3-yl)-imino)-erythromycin A] | 1 µg/mL (≈ 1.19 µM) | <0.063 µg/mL | <0.063 µg/mL | <0.063 µg/mL | 0.5 µg/mL (≈ 0.597 µM) |  |  |  |  | 
CCC1OC(=O)C(C)C(=O)C(C)C(OC2OC(C)CC(N(C)C)C2O)C(C)(OC)CC(C)C(=O)C(C)C2N(C3CN(S(=O)(=O)c4ccc(OC)c(OCC#N)c4)C3)C(=O)OC12C (stereo not drawn) [Example 3.109, 3-descladinosyl-11,12-dideoxy-6-O-methyl-3-oxo-12,11-(oxycarbonyl-(1-(3-(cyanomethoxy)-4-methoxybenzene-1-sulfonyl)-azetidin-3-yl)-imino)-erythromycin A] | 0.125 µg/mL (≈ 0.14 µM) | <0.063 µg/mL | <0.063 µg/mL | <0.063 µg/mL | <0.063 µg/mL |  |  |  |  | 
CCC1OC(=O)C(C)C(=O)C(C)C(OC2OC(C)CC(N(C)C)C2O)C(C)(OC)CC(C)C(=O)C(C)C2N(C3CN(Cc4ccc5c(c4)CS(=O)(=O)C5)C3)C(=O)OC12C (stereo not drawn) [Example 1.94] | 4 µg/mL (≈ 4.72 µM) | <0.063 µg/mL | 0.5 µg/mL (≈ 0.59 µM) | 0.25 µg/mL (≈ 0.295 µM) | 1 µg/mL (≈ 1.18 µM) |  |  |  |  | 
